{"source": "patent EP4583874B1", "about": "“MULTITARGET NUCLEAR RECEPTOR LIGANDS BASED ON 2-(4-(QUINOLIN-2-YLOXY)PHENOXY)PROPANOIC ACID AND 2-(4-(QUINOXALIN-2-YLOXY)PHENOXY)PROPANOIC ACID FOR THE TREATMENT OF METABOLIC AND LIVER DISEASES” (CHARLES UNIVERSITY, FACULTY OF PHARMACY IN HRADEC KRALOVE, priority 2022, dated 2024)", "key": {"[1]": {"biological_target": "T1, human PPARγ (Homo sapiens, UniProt P37231)", "T1 construct": "DNA constructs encoding human LBD domains of human PPARα, PPARγ, of LXRα (pGAL4-PPARα, pGAL4-PPARγ, pGAL4-LXRα); expressed in transfected cells; host or cells: HepG2", "T1 sequence (P37231 238-503 limits assumed)": "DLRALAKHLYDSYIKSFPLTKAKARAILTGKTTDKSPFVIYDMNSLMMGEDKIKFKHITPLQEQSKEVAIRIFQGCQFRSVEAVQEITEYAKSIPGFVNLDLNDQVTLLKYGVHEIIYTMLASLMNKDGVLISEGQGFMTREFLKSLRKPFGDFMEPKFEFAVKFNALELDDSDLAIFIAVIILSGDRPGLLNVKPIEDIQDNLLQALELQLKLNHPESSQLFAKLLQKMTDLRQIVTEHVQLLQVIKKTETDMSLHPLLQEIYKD", "assay": "PPARγ luciferase reporter gene assay (pGAL4-PPARγ / pGL5-UAS 9x) in HepG2 cells", "format": "cell-based", "settings": "HepG2, 24 h"}, "[2]": {"test_system": "C57BL/6J mice", "assay": "Pilot study in mice, liver mRNA expression by RT-qPCR", "format": "in vivo", "settings": "3x 30 mg/kg p.o. gavage, liver 24 h after last application, vs vehicle", "experimental": "Compounds 35 and 37 have been applied three times after 24 h (3x 30 mg/kg) via p.o. gavage to wild-type C57BL/6J mice. After 24 h from the last application, mice were sacrificed, and live samples collected on dry ice for total RNA isolation. RT-qPCR experiments have been performed with TaqMan probes and expression has been quantified using a reference gene (beta-actin and Gapdh) and delta-delta method. Data represents fold up or downregulation in mRNA expression for tested genes related to the expression in vehicle-treated control animals. * - statistically significant (p<0.05) up- or down- regulation in animals treated with tested compounds (n=4).\nIn the pilot study, compounds of the invention 37 and 35 were applied by per os probe (gavage) to male mice of age 15 weeks (n=4 per group) three times (3 x 30 mg/kg b.w.) in 1%PEG300/methylcellulose solution (compounds of EXAMPLE 37or 35). Livers were sampled 24 hours after application into liquid nitrogen for total RNA insolation and for qRT-PCR analysis (Quantstudio 7 HT Fast Real-Time PCR System).\n(§1) Expressions of NR target genes mRNAs in livers of mice or in 3D cultured (spheroids) primary human hepatocytes have been performed using TaqMan probes-based RT-qPCR after isolation of total RNA by Trizol® (ThermoFischer Scientific) reagent and reverse transcription synthesis of cDNA in Quant Studio cycler. Real-time qPCR TaqMan probes have been purchased prom ThermoFisher scientific (Cat. No. 4351372 and 433118). Delta-delta method and Gapdh or TATA-box binding protein (TBP) housekeeping genes were used for relative quantification. Data are expressed as fold up-/down-regulation compared to vehicle-treated samples/mice."}, "[3]": {"test_system": "C57BL/6J mice fed with high fat diet", "assay": "Proof-of-concept study in mice fed with high fat diet: plasma biochemistry, weights, IPGTT", "format": "in vivo", "settings": "HFD mice; for glucose plasma levels in Intraperitoneal Glucose Tolerance Test (IPGTT): IPGTT 1.5 g/kg BW", "from_the_text": "Control group received a chow diet.\nIn the proof-of-concept study, after a 1-week of adaptation period, male C57BL/6J mice were randomly divided into three groups: (i) mice fed a chow diet (control; PicoLab RD 20, LabDiet) and tap water (n=4) or (ii) mice fed a high-fat diet (HFD) consisting of Western diet (AIN-76A WD, TestDiet, 20 % fat) and glucose (18.1 g/L) with fructose (24 g/L) provided in water. At week 21 on HFD diet, mice were randomly assigned into two experimental groups (10 and 11 mice per group): (ii) group on HFD, (iii) group on HFD administered with 10 mg/kg compound of EXAMPLE 37 as a salt (hydrochloride) (HFD +comp. 37). Compound of EXAMPLE 37or vehicle (1% methylcellulose) were administered once daily by oral gavage for another 3 weeks together with diets.\nThe i.p. Glucose tolerance test has been performed seven days before the termination of the study. For the purpose, […] of glucose dissolved in saline has been applied and blood was sampled in four intervals up to 120 minutes form tail vein. A standard glucometer was used to measure glycemia.\nFor biochemistry analyses, plasma liver enzyme activities were analyzed in plasma by a commercial Preventive Care Profile Plus test with Vetscan 2 device (Abaxis). Level of cholesterol and triglycerides in plasma and liver were measured by commercial kits (Erba Lachema s.r.o., Brno, Czech Republic).\nAnimals were sacrificed by anesthesia overdose. Plasma samples were obtained from the whole blood by centrifugation at 2,000 × g for 5 min at 4°C. The liver, gallbladder and abdominal fat were excised, weighted and immediately frozen in liquid nitrogen. All samples were stored at -80°C until analysis."}, "[4]": {"test_system": "C57BL/6J mice fed with high-fat diet", "assay": "Proof-of-concept study in mice fed with high-fat diet, liver mRNA expression by RT-qPCR", "format": "in vivo", "settings": "10 mg/kg p.o. daily for three weeks, HFD mice", "experimental": "The compound 37 has been applied daily (10 mg/kg) via p.o. gavage for three weeks to wild-type C57BL/6J mice fed with high-fat diet (HFD) for 24 weeks. After 24 h from the last application, mice were sacrificed, and live samples collected on dry ice for total RNA isolation. RT-qPCR experiments have been performed with TaqMan probes and expression has been quantified using a reference gene (Gapdh) and delta-delta method. Data represents fold up or downregulation in mRNA expression for tested genes related to the expression in vehicle-treated control animals. * - denotes statistically significant (p<0.05) up-regulation in animals treated with the compound of EXAMPLE 37 in comparison to animals fed with HFD only (n ≥ 10 in each groups). ^f - statistically significant effect of HFD diet on a gene expression. […]\nas §1, with “Real-time qPCR TaqMan probes have been purchased prom ThermoFisher scientific (Cat. No. 4351372 and 433118).” left out"}, "[5]": {"settings": "10 mg/kg p.o. daily for 3 weeks (hydrochloride), vs HFD group"}}, "data": [{"smiles": "C[C@@H](Oc1ccc(Oc2ccc3c(Cl)cccc3n2)cc1)C(=O)O", "note": "[compound 37, (R)-2-(4-((5-Chloroquinolin-2-yl)oxy)phenoxy)propanoic acid]", "values": [{"measurement": "Emax at 10 µM", "setting": "[1]", "result": 1, "unit": "%"}, {"measurement": "Cyp7a1 expression in the mouse liver", "setting": "[2]", "result": "down-regulates"}, {"measurement": "Fasn gene expression in the mouse liver", "setting": "[2]", "result": "down-regulate"}, {"measurement": "Pck1 gene expression in the mouse liver", "setting": "[2]", "result": "down-regulate"}, {"measurement": "cholesterol efflux transporters Abcg5/8 expression in the mouse liver", "setting": "[2]", "result": "down-regulates"}, {"measurement": "key protein involved in fatty acid (beta) oxidation, mRNA expression in the mouse liver", "setting": "[2]", "result": "up-regulate"}, {"measurement": "ALP plasma levels", "setting": "[3]; [5]", "result": "increases"}, {"measurement": "ALT plasma levels", "setting": "[3]; [5]", "result": "improves"}, {"measurement": "AST plasma levels", "setting": "[3]; [5]", "result": "improves"}, {"measurement": "plasma triglyceride (TG) levels", "setting": "[3]; [5]", "result": "significantly decreases"}, {"measurement": "abdominal fat weight (AFW)", "setting": "[3]; 10 mg/kg p.o. daily for 3 weeks, effect not statistically significant", "result": "decreased"}, {"measurement": "body weight (BW)", "setting": "[3]; 10 mg/kg p.o. daily, after three weeks of treatment", "result": "significantly decreased"}, {"measurement": "glucose plasma levels in Intraperitoneal Glucose Tolerance Test (IPGTT)", "setting": "[3]; after 15 minutes, 10 mg/kg p.o. daily", "result": "significantly decreased"}, {"measurement": "glucose plasma levels in Intraperitoneal Glucose Tolerance Test (IPGTT)", "setting": "[3]; other intervals, 10 mg/kg p.o. daily", "result": "the decrease was not statistically significant"}, {"measurement": "key genes of gluconeogenesis", "setting": "[4]", "result": "down-regulated"}, {"measurement": "key genes involved in fatty acid (beta) oxidation (Ucp2, Hadha and Hadha) in mouse livers", "setting": "[4]; vs HFD only", "result": "up-regulates"}]}]}
